Reference: the NIST ThermoML archive (doi:10.1016/j.jct.2011.10.001)

Test: molar heat capacity at constant pressure
Details: 101.33 kPa, Vacuum adiabatic calorimetry

CCCC(=O)OC [methyl butanoate]
molar heat capacity at constant pressure [J/K/mol]
Details	Crystal	Liquid
5 K	0.356	–
7.61 K	1.24	–
7.88 K	1.381	–
8.13 K	1.514	–
8.39 K	1.657	–
8.65 K	1.805	–
8.9 K	2.108	–
9.16 K	2.207	–
9.41 K	2.466	–
9.66 K	2.549	–
9.91 K	2.719	–
10 K	2.828	–
10.22 K	2.894	–
10.6 K	3.3	–
10.98 K	3.648	–
11.35 K	4.064	–
11.73 K	4.38	–
12.13 K	4.735	–
12.5 K	5.111	–
12.86 K	5.563	–
13.23 K	5.907	–
13.6 K	6.278	–
13.96 K	6.646	–
14.33 K	7.063	–
14.68 K	7.551	–
15 K	7.893	–
15.04 K	7.92	–
15.4 K	8.318	–
15.76 K	8.825	–
16.11 K	9.332	–
16.47 K	9.652	–
16.82 K	10.21	–
17.17 K	10.66	–
17.53 K	11.07	–
17.88 K	11.41	–
18.23 K	11.84	–
18.58 K	12.53	–
18.93 K	12.9	–
19.28 K	13.53	–
19.63 K	13.98	–
19.98 K	14.42	–
20 K	14.36	–
20.62 K	15.2	–
21.39 K	16.16	–
22.15 K	17.23	–
22.91 K	18.29	–
23.67 K	19.35	–
24.44 K	20.59	–
25 K	21.25	–
25.2 K	21.61	–
25.97 K	22.55	–
26.73 K	23.64	–
27.49 K	24.49	–
28.25 K	25.82	–
29.01 K	26.93	–
29.77 K	27.91	–
30 K	28.14	–
30.53 K	29.04	–
31.29 K	29.6	–
32.82 K	31.82	–
33.59 K	32.79	–
34.35 K	33.88	–
35 K	34.59	–
35.11 K	34.58	–
35.86 K	35.63	–
36.61 K	36.63	–
37.37 K	37.49	–
38.12 K	38.33	–
38.88 K	38.88	–
39.63 K	39.87	–
40 K	40.28	–
40.39 K	40.69	–
41.14 K	41.43	–
41.9 K	42.12	–
42.65 K	43.21	–
43.4 K	44	–
44.16 K	44.51	–
44.91 K	45.66	–
45 K	45.57	–
45.66 K	46.29	–
46.41 K	47.13	–
47.17 K	47.63	–
47.92 K	48.66	–
48.66 K	49.52	–
49.41 K	50.2	–
50 K	50.77	–
50.16 K	50.98	–
50.91 K	51.69	–
51.66 K	52.27	–
52.4 K	53.16	–
53.15 K	54.06	–
53.89 K	54.63	–
54.64 K	55.7	–
55 K	55.94	–
55.38 K	56.48	–
56.12 K	57.16	–
56.87 K	57.9	–
59.09 K	60.08	–
59.84 K	60.45	–
60 K	60.87	–
60.58 K	61.42	–
61.32 K	62.07	–
62.06 K	62.68	–
62.8 K	63.44	–
63.54 K	64.04	–
64.28 K	64.72	–
65 K	65.14	–
65.03 K	65.05	–
65.77 K	65.7	–
66.5 K	66.39	–
67.24 K	66.79	–
67.98 K	67.34	–
68.72 K	67.73	–
69.46 K	68.24	–
70 K	68.48	–
70.2 K	68.47	–
71.09 K	68.75	–
72.14 K	69.62	–
73.19 K	70.47	–
74.24 K	70.88	–
75 K	71.36	–
75.29 K	71.51	–
76.34 K	72.3	–
77.39 K	72.87	–
78.44 K	73.35	–
78.68 K	72.62	–
79.48 K	74.12	–
79.71 K	73.82	–
80 K	74.1	–
80.53 K	74.83	–
80.74 K	74.41	–
81.58 K	75.43	–
81.76 K	74.8	–
82.62 K	75.67	–
82.79 K	75.48	–
83.67 K	76.36	–
83.81 K	75.48	–
84.83 K	76.86	–
85 K	76.9	–
85.85 K	77.51	–
86.87 K	77.78	–
87.89 K	78.68	–
88.91 K	79.57	–
89.93 K	79.99	–
90 K	79.81	–
90.96 K	80.42	–
91.97 K	80.85	–
92.99 K	81.43	–
94.01 K	82.02	–
95 K	82.75	–
95.03 K	82.39	–
96.04 K	83.43	–
97.06 K	84.19	–
98.07 K	84.16	–
99.09 K	84.89	–
100 K	85.29	–
100.1 K	85.45	–
101.62 K	86.18	–
103.64 K	87.3	–
105.66 K	88.28	–
107.68 K	89.36	–
109.7 K	90.17	–
110 K	90.46	–
111.72 K	91.08	–
113.73 K	92.15	–
115.74 K	93.34	–
117.75 K	94.24	–
119.76 K	95.16	–
120 K	95.31	–
121.76 K	96.24	–
123.77 K	97.13	–
125.78 K	98.02	–
127.78 K	98.84	–
129.79 K	99.75	–
130 K	99.17	–
131.79 K	100.55	–
133.79 K	101.43	–
135.8 K	102.27	–
137.8 K	103.03	–
139.79 K	103.9	–
140 K	103.65	–
141.79 K	104.89	–
143.79 K	105.51	–
145.78 K	106.36	–
147.78 K	107.25	–
149.77 K	107.92	–
150 K	108.14	–
151.89 K	109.06	–
153.86 K	109.91	–
155.85 K	110.69	–
157.83 K	111.73	–
159.81 K	112.47	–
160 K	112.62	–
161.79 K	113.29	–
163.77 K	114.29	–
165.74 K	115.26	–
167.72 K	116.18	–
169.56 K	116.65	–
170 K	117.11	–
171.52 K	117.81	–
173.49 K	119.09	–
175.45 K	120.75	–
177.41 K	122.58	–
179.36 K	125.17	–
180 K	121.59	–
181.29 K	129.69	–
183.2 K	139.88	–
185.04 K	158.37	–
186.78 K	216.75	–
188.21 K	448.34	–
189.16 K	1561.8	–
189.7 K	8659.7	–
190 K	126.08	–
190.09 K	126.12	184.56
191.08 K	185.22	–
192.79 K	–	184.74
194.49 K	–	184.98
196.18 K	–	185.21
197.88 K	–	185.04
199.57 K	–	185.15
200 K	–	185.19
201.25 K	–	185.01
202.85 K	–	185.47
202.93 K	–	185.15
204.61 K	–	185.47
204.73 K	–	185.64
206.27 K	–	185.39
206.69 K	–	185.68
207.94 K	–	185.44
208.64 K	–	186
210 K	–	185.83
210.58 K	–	186.03
212.53 K	–	186
214.48 K	–	186.17
216.42 K	–	186.44
218.37 K	–	186.11
220 K	–	186.51
220.31 K	–	186.33
222.24 K	–	186.86
224.17 K	–	186.8
226.1 K	–	186.88
228.02 K	–	187.23
229.93 K	–	187.61
230 K	–	187.52
231.85 K	–	187.86
233.68 K	–	187.83
235.58 K	–	188.04
237.48 K	–	188.4
239.37 K	–	188.78
240 K	–	188.78
241.26 K	–	188.74
243.14 K	–	189.23
245.01 K	–	189.8
246.89 K	–	190.04
248.76 K	–	190.11
250 K	–	190.21
250.62 K	–	190.43
252.49 K	–	190.56
254.35 K	–	190.93
256.2 K	–	190.97
258.06 K	–	191.41
259.91 K	–	191.46
260 K	–	191.68
261.76 K	–	191.67
263.49 K	–	192.11
265.34 K	–	192.17
267.17 K	–	192.77
269.01 K	–	193.06
270 K	–	193.16
270.85 K	–	193.64
272.68 K	–	194.01
274.5 K	–	193.7
276.33 K	–	194.03
278.16 K	–	194.27
279.98 K	–	194.58
280 K	–	194.68
281.79 K	–	195.04
283.59 K	–	195.25
285.4 K	–	195.54
287.19 K	–	195.76
288.98 K	–	196.51
290 K	–	196.51
290.74 K	–	196.84
292.33 K	–	196.73
294.09 K	–	197.27
295.83 K	–	197.8
297.59 K	–	198
298.15 K	–	198.08
299.34 K	–	198.43
300 K	–	198.44
301.06 K	–	198.72
302.76 K	–	198.98
304.45 K	–	199.24
306.14 K	–	199.38
307.81 K	–	199.85
309.48 K	–	200.31
310 K	–	200.39
311.13 K	–	200.58
312.78 K	–	200.66
314.42 K	–	201.21
316.05 K	–	201.68
317.67 K	–	201.91
318.97 K	–	202.28
320 K	–	202.43
320.57 K	–	202.72
322.17 K	–	203.14
323.75 K	–	203.27
325.32 K	–	203.68
326.89 K	–	204.18
328.44 K	–	204.41
329.98 K	–	204.65
330 K	–	204.68
331.51 K	–	204.84
333.03 K	–	205.34
334.54 K	–	205.78
336.04 K	–	206.3
337.49 K	–	206.62
338.96 K	–	206.61
340 K	–	207.21
340.42 K	–	207.11
341.87 K	–	207.49
342.87 K	–	207.85
344.3 K	–	208.38
345.71 K	–	208.82
347.12 K	–	209.31
348.51 K	–	209.73
349.89 K	–	209.95
350 K	–	210.03
351.26 K	–	210.42
352.61 K	–	210.86
353.95 K	–	211.39
355.28 K	–	211.75
356.6 K	–	211.91
357.9 K	–	212.69
359.2 K	–	212.83
360 K	–	213
360.47 K	–	213.07
361.74 K	–	213.3
362.99 K	–	214.05
363.57 K	–	213.92
364.8 K	–	214.49
366.02 K	–	214.53
367.22 K	–	214.65
368.41 K	–	215.35
369.58 K	–	215.99
370 K	–	215.8
370.75 K	–	216.01
371.9 K	–	216.31
